Results taken from ChEMBL document CHEMBL1157194, “Recent advances in selective alpha1-adrenoreceptor antagonists as antihypertensive agents” (Bioorg Med Chem, 2008).

Key:
[1] = Antagonist activity at adrenergic alpha1 receptor; assay type: functional
[2] = biological target: T1, Alpha-1A adrenergic receptor (Oryctolagus cuniculus, UniProt O02824); assay: Agonist activity at rabbit urethra adrenergic alpha1A receptor; assay type: functional
T1 sequence (O02824 whole entry): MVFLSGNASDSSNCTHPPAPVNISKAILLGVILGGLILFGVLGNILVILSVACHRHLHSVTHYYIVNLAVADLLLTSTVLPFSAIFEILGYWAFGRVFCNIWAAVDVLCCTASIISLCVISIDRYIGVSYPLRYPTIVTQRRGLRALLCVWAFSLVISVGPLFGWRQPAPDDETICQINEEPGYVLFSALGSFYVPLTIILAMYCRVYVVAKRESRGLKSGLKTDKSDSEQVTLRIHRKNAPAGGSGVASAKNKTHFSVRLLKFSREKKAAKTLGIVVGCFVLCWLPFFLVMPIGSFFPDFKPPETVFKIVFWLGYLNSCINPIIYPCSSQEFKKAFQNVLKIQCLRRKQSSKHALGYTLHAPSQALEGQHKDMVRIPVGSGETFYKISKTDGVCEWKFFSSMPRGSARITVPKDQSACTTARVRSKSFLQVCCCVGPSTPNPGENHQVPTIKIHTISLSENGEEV

[3] = biological target: T2, Alpha-1A adrenergic receptor (Rattus norvegicus) (UniProt P43140); assay: (§1) Antagonist activity at rat spleen adrenergic alpha1A receptor; assay type: functional, tissue-based
T2 sequence (whole entry): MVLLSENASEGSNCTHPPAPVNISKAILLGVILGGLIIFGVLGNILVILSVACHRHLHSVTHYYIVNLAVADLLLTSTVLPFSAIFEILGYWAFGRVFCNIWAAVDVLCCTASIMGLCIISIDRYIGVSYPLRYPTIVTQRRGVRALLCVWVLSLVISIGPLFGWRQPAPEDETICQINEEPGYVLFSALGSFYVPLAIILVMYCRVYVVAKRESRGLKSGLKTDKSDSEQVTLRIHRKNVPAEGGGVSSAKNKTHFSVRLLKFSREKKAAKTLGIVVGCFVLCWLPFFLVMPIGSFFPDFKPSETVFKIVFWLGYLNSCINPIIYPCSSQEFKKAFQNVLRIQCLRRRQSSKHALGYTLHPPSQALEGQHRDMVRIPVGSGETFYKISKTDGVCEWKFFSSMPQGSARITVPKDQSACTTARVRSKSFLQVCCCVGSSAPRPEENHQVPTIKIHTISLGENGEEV

[4] = biological target: T3, Alpha-1A adrenergic receptor (Rattus norvegicus, UniProt P43140); assay: as §1; assay type: functional, tissue-based; details: read-out: pA2 (converted)
T3 sequence (P43140 whole entry): T2 sequence (whole entry)

[5] = biological target: T4, Alpha-1A adrenergic receptor (Oryctolagus cuniculus) (UniProt O02824); assay: Antagonist activity at rabbit urethra adrenergic alpha1A receptor relative to phenylephrine; assay type: functional; design: scale not given: the % may be the effect or the level left
T4 sequence (whole entry): T1 sequence (O02824 whole entry)

[6] = biological target: T2, Alpha-1A adrenergic receptor (Rattus norvegicus); assay: Antagonist activity at rat spleen adrenergic alpha1A receptor relative to phenylephrine; assay type: functional, tissue-based; design: scale not given: the % may be the effect or the level left
[7] = Selectivity for alpha2 adrenergic receptor over alpha1 adrenergic receptor
[8] = Binding affinity to adrenergic alpha1 receptor
[9] = biological target: T5, Alpha-1B adrenergic receptor (Homo sapiens) (UniProt P35368); assay: Antagonist activity at adrenergic Alpha-1B receptor; assay type: functional
T5 sequence (whole entry): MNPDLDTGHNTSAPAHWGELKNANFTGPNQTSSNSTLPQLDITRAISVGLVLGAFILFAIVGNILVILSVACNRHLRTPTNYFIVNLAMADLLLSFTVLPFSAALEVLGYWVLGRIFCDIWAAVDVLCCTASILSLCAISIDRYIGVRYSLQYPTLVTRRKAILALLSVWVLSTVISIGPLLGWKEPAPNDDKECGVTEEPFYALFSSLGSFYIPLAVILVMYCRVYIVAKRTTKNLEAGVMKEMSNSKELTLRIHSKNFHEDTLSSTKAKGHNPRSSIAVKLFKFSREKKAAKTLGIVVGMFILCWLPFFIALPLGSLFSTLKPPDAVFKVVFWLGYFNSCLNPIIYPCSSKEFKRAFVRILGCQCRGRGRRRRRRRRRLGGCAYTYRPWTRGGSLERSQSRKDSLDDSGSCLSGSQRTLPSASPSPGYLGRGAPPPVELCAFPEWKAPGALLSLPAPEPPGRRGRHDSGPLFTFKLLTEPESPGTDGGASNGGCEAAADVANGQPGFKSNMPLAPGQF

[10] = biological target: T6, Alpha-1D adrenergic receptor (Homo sapiens) (UniProt P25100); assay: Antagonist activity at adrenergic Alpha-1D receptor; assay type: functional
T6 sequence (whole entry): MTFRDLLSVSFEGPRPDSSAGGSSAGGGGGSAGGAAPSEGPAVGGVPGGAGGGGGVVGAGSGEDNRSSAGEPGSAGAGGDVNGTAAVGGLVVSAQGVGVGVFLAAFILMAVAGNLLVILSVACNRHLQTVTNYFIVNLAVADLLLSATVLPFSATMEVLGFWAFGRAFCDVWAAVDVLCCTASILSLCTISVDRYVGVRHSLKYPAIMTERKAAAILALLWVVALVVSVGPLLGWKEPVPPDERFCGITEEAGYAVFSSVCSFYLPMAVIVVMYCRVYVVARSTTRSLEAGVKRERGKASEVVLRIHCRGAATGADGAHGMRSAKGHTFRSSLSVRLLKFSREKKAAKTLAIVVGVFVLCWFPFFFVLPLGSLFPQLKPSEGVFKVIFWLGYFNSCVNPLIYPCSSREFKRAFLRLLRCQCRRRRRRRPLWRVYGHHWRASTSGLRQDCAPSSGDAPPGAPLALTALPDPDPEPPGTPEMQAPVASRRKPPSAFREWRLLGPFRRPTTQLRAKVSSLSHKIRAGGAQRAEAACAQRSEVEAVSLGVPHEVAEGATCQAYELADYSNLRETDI

[11] = biological target: T7, 5-hydroxytryptamine receptor 1A (Homo sapiens, UniProt P08908); assay: Binding affinity to 5HT1A
T7 sequence (P08908 whole entry): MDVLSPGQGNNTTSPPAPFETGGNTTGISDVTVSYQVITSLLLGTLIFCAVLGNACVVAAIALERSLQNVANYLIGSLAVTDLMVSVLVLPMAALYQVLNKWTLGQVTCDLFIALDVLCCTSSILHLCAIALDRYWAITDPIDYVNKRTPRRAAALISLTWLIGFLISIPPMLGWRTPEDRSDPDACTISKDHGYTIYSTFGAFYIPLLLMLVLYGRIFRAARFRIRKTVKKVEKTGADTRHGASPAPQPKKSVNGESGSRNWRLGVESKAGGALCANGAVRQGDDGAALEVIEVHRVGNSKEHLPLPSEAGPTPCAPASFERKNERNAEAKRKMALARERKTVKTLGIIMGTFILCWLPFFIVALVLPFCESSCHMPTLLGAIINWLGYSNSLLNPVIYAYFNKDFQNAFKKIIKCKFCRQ

[12] = biological target: T8, Alpha-1A adrenergic receptor (Homo sapiens, UniProt P35348); assay: Binding affinity to adrenergic alpha1A receptor
T8 sequence (P35348 whole entry): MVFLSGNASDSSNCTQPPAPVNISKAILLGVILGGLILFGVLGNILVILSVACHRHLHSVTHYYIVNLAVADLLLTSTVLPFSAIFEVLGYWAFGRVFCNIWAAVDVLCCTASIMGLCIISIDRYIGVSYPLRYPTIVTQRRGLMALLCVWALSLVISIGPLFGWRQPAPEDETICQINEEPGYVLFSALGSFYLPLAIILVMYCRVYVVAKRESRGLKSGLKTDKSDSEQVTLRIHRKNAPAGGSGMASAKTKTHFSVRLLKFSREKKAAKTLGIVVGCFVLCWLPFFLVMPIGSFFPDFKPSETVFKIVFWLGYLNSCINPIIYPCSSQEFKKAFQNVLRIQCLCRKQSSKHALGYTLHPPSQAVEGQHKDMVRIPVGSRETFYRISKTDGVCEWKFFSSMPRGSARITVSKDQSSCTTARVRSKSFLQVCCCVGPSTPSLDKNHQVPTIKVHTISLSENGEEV

D(2) dopamine receptor = D(2) dopamine receptor (Homo sapiens, UniProt P14416); assay: Binding affinity to dopamine D2 receptor
Chain of D(2) dopamine receptor (P14416 whole entry): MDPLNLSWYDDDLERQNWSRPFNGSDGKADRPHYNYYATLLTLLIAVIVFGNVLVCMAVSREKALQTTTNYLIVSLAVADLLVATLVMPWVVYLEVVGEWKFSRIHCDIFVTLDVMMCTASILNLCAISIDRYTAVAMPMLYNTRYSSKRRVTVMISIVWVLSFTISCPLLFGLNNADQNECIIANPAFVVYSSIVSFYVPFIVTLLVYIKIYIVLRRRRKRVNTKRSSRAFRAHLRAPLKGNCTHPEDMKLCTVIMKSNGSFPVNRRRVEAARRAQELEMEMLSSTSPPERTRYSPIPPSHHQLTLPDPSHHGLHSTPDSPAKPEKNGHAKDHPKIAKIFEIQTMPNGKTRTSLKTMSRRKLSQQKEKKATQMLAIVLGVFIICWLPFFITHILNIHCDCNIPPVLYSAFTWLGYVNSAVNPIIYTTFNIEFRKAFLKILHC

D(3) dopamine receptor = D(3) dopamine receptor (Homo sapiens, UniProt P35462); assay: Binding affinity to dopamine D3 receptor
Chain of D(3) dopamine receptor (P35462 whole entry): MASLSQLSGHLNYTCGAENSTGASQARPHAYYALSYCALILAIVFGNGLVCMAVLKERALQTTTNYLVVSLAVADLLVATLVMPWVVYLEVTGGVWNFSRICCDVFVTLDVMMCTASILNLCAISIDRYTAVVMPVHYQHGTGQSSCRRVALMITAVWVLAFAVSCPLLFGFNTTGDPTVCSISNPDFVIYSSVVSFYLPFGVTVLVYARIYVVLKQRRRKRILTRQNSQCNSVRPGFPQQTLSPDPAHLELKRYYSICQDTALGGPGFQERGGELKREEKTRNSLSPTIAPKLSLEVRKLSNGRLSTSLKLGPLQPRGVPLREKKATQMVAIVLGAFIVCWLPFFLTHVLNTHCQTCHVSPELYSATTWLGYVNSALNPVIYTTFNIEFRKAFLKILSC

[13] = Binding affinity to 5HT2
[14] = biological target: 5-hydroxytryptamine receptor 1B (Homo sapiens, UniProt P28222); assay: Binding affinity to 5HT1B
Chain of 5-hydroxytryptamine receptor 1B (P28222 whole entry): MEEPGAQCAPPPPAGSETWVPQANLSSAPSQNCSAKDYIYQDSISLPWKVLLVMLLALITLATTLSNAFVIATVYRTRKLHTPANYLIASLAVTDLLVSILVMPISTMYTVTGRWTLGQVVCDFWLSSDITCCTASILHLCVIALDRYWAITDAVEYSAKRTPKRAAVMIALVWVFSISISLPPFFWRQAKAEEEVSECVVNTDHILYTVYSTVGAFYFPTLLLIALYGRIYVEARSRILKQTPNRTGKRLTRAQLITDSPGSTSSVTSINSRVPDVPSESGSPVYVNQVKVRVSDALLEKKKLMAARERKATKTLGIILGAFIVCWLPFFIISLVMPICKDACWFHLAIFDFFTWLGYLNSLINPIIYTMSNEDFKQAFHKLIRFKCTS

[15] = Binding affinity to adrenergic alpha2 receptor
[16] = Binding affinity to adrenergic alpha1L receptor
[17] = Binding affinity to adrenergic alpha1H receptor
Rattus norvegicus = organism: Rattus norvegicus; assay: Antagonistic activity at alpha 1-adrenoceptor in rat; assay type: functional, organism-based; details: read-out: pA2 (converted)
[18] = Binding affinity to adrenergic alpha1N receptor
Homo sapiens [19] = organism: Homo sapiens; assay: Selectivity for human alpha1A adrenergic receptor over human cloned alpha2A adrenergic receptor
Homo sapiens [20] = organism: Homo sapiens; assay: Selectivity for human alpha1A adrenergic receptor over human cloned alpha2B adrenergic receptor
Homo sapiens [21] = organism: Homo sapiens; assay: Selectivity for human alpha1A adrenergic receptor over human cloned Alpha-2C adrenergic receptor
[22] = Dissociation constant, pKb of the compound; assay type: physicochemical
D(4) dopamine receptor = biological target: T9, D(4) dopamine receptor (Homo sapiens, UniProt P21917); assay: Binding affinity to human cloned dopamine D4.4 receptor
T9 sequence (P21917 whole entry): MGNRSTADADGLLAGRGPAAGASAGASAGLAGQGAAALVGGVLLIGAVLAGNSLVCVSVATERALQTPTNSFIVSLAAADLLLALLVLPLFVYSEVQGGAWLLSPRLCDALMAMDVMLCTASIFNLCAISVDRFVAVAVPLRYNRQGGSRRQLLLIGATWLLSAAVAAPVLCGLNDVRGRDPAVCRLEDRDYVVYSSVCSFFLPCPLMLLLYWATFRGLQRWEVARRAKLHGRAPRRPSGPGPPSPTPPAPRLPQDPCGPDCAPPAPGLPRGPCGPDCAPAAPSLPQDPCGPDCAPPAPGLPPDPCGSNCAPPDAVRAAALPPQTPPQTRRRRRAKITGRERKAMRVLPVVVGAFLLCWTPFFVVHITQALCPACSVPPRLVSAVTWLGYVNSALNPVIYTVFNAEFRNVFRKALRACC

[23] = Binding affinity to human cloned dopamine D4.2 receptor
[24] = Binding affinity to human cloned dopamine D4.7 receptor
[25] = biological target: 5-hydroxytryptamine receptor 2A (Homo sapiens, UniProt P28223); assay: Binding affinity to 5HT2A
Chain of 5-hydroxytryptamine receptor 2A (P28223 whole entry): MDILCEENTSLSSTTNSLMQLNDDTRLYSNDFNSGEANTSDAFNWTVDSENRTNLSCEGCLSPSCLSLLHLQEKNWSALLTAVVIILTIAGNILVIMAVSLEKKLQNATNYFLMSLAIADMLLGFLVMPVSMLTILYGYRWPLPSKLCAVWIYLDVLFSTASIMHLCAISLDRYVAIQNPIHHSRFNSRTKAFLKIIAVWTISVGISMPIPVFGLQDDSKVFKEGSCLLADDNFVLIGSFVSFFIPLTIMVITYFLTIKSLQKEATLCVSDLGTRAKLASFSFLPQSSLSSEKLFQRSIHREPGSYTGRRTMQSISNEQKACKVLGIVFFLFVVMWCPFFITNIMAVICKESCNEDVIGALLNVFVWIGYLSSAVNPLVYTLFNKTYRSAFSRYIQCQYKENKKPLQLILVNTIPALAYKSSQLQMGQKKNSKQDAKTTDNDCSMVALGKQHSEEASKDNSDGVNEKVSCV

COc1ccc(Cl)cc1N1CCN(CCNC(=O)c2ccco2)CC1.Cl
pA2 [1]: 8.56

CCS(=O)(=O)Nc1cccc(Cc2c[nH]cn2)c1
EC50 [2]: 60 nM | pD2 [3]: 6.16 | Kb [4]: 3.98 µM | Activity [5]: 80% | Activity [6]: 11%

COc1ccccc1OCCN1CCN(c2ccc(=O)n(Cn3nc(N4CCN(CCOc5ccccc5OC)CC4)ccc3=O)n2)CC1
Selectivity ratio [7]: > 100

COc1cccc(OC)c1OCCNCC1COc2ccccc2O1 (configuration not stated)
Ki [8]: 0.54 nM

O=C1NCCN1CCN1CCC(c2cn(-c3ccc(F)cc3)c3ccc(Cl)cc23)CC1
Activity [9]: 3.2 nM | Activity [10]: 9 nM

CC(C)Oc1ccccc1N1CCN(Cc2cccc(C(=O)N3CCCCC3)c2)CC1 [MAZAPERTINE]
Ki ([8]; read-out: Ki): < 4 nM | Ki [11]: < 4 nM | Ki [12]: 0.02 nM | Ki (D(2) dopamine receptor): < 4 nM | Ki (D(3) dopamine receptor): < 4 nM | Ki [13]: 165 nM | Ki [14]: 2880 nM | Ki [15]: 17 nM

COc1cc2nc(N3CCN(C(=O)c4ccco4)CC3)nc(N)c2cc1OC [PRAZOSIN]
Kb [16]: > 2 nM | Kb [17]: < 1 nM | Kb (Rattus norvegicus): 10 nM | Ki ([8]; read-out: Ki): 0.32 nM | Kb [18]: > 2 nM

COc1cccc(N2CCN(CCNC(=O)c3ccco3)CC2)c1.Cl
pA2 [1]: 8.56

COC(=O)[C@@H]1[C@H]2C[C@H]3c4[nH]c5ccccc5c4CCN3C[C@@H]2CC[C@@H]1O
Kb [17]: > 300 nM | Kb [18]: < 100 nM

NC(=O)CN(CCc1ccc(-c2ccccc2)cc1)C(=O)CN(C(=O)CNCCc1ccc(O)cc1)c1ccc(-c2ccccc2)cc1
Ki ([8]; read-out: Ki): 310 nM

NC(=O)CN(CCc1ccccc1)C(=O)CN(C(=O)CNCCc1ccc(O)cc1)c1ccc(Oc2ccccc2)cc1
Ki ([8]; read-out: Ki): 140 nM

COC(=O)C1=C(C)NC(C)=C(C(=O)NCCCN2CCC(c3ccccc3)(c3ccccc3)CC2)C1c1ccc([N+](=O)[O-])cc1 (configuration not stated)
Selectivity ratio (Homo sapiens [19]): > 1000 | Selectivity ratio (Homo sapiens [20]): > 1000 | Selectivity ratio (Homo sapiens [21]): > 1000

COc1ccccc1OCCN1CCN(c2ccn[nH]c2=O)CC1
pKb [22]: 6.18

NC(=O)CN(CCc1ccccc1)C(=O)CN(C(=O)CNCCc1ccc(O)cc1)c1ccc(-c2ccccc2)cc1
Ki ([8]; read-out: Ki): 0.32 nM

CN1CCN(C2=Nc3cc(Cl)ccc3Nc3ccccc32)CC1 [CLOZAPINE]
Ki ([8]; read-out: Ki): 1.4 nM

COc1ccccc1N1CCN(CCNC(=O)c2ccco2)CC1.Cl
pA2 [1]: 9.12

O=C(CCCN1CCC(O)(c2ccc(Cl)cc2)CC1)c1ccc(F)cc1 [HALOPERIDOL]
Ki ([8]; read-out: Ki): 1 nM

Nc1nc(-c2ccc(F)cc2)c([C@@H]2CCN(CCCC(=O)c3ccc(F)cc3)C2)s1
Ki (D(4) dopamine receptor): 0.55 nM | Ki ([8]; read-out: Ki): 1.4 nM | Ki [23]: 2.54 nM | Ki [24]: 0.54 nM | Ki [25]: 1.92 nM

Cc1cc(C)c2c(N)nc(N3CCN(C(=O)c4ccco4)CC3)nc2n1
Kb (Rattus norvegicus): 15.8 nM
